Measurements: article PMC5494507, “γ‐Secretase inhibitors in cancer clinical trials are pharmacologically and functionally distinct” (EMBO Molecular Medicine, 2017)
“Also recorded” adds a separate entry of the source. Where two headings read alike, the source gives them in different places.

Columns and labels:
cNOTCH1‐4sub = assay: Average of cell-based IC50s on cNOTCH1-4sub in H4 cells; parameters: species or system human; conditions: read-out: Average IC50s of each GSI on cNOTCH1‐4sub
Protocol: (§1) Using these cell‐based γ‐secretase cleavage assays, we systematically investigated the substrate inhibition profile of BMS‐906024, MK‐0752, PF‐308414, RO4929097, Semagacestat, and DAPT. We treated H4 cells stably expressing cNOTCH1‐4sub with 4 pM to 10 μM of GSIs (Fig 5A and Table 2) and measured the Aβ‐like peptide secreted into the media.
(§2) For the cell‐based assay, all substrates contain a human NOTCH4 signal peptide sequence ([…]), amyloid β peptide (Aβ1–25/K16A) epitope tag followed by the juxtamembrane region (JMD) of the given substrate and a FLAG tag ([…]) at the COOH‐terminal. K16A mutant was created to decrease potential α‐secretase cleavage. The cDNAs were generated by gene synthesis conducted by Genscript. A schematic representation of the substrates is provided in Fig 4A, and sequences of the cDNAs and the proteins are provided in Appendix Fig S6. For clarity, these substrates are referred to as cell‐based assay substrates (e.g., NOTCH1 is cNOTCH1sub). Substrate cDNAs were cloned into pCDNA3.1 (Invitrogen, Carlsbad, CA, USA) for expression in H4 cells (ATCC, Manassas, VA).
(§3) H4 cells were cultured in Opti‐mem media (Thermo‐Fisher) supplemented with Hyclone 6% fetal bovine serum (GE, Logan, Utah, USA) and 1% penicillin/streptomycin (Life Technologies, Grand Island, NY, USA). pCDNA3.1 plasmids containing the substrate cDNAs were transfected into H4 cells using FuGENE HD reagent (Madison, WI, USA). Stable cell lines were established using G418 selection. […] Cells and conditioned media were used for WB, IP, and ELISA.
(§4) Sandwich ELISAs used for Aβ detection were performed as previously described (Murphy et al, 1999; Ran et al, 2014). Briefly, Aβ and Aβ‐like peptides in conditioned media were captured with Ab5 antibody and detected with horseradish peroxidase labeled mAb 4G8 (Biolegend). Synthetic Aβ1‐40 was used as standard. All ELISAs were developed with TMB substrate (KPL, Gaithersburg, Maryland, USA). Bis‐Tris precast gels (Biorad, Hercules, CA, USA) were used for all SDS–PAGE. Monoclonal anti‐FLAG M2 antibody (Sigma) and Aβ1‐16 antibody 6E10 (Covance) were used for Western blotting at 1:1,000 dilution. Anti‐CD74 In‐1 antibody (BD Bioscience, San Jose, CA, USA) was used for A20 cell lysate Western blotting at dilution of 1:1,000. MDA‐MB‐231 cell extracts were prepared by lysing cells in RIPA buffer containing protease and phosphatase inhibitors. The lysates were kept on ice for 30 min and vortexed every 10 min, and then centrifuged at 4°C for 10 min at 1,000 g. The supernatants were collected, and protein concentrations were determined by Bradford Assay. Pan‐NOTCH1 antibody (C‐20) (Santa Cruz Biotechnology) and cleaved NOTCH1 (Val1744) antibody (Developmental Studies Hybridoma Bank) were used at 1:500 and 1:100 dilution in the test of endogenous NOTCH1 inhibition with β‐actin expression used as loading control. β‐actin antibody was used at 1:1,000 dilution (Sigma). Band intensities normalized for actin using densitometry analysis with ImageJ Software (NIH, USA).

cAPPC100sub = assay: Cell-based γ-secretase cleavage assay, cAPPC100sub stably overexpressing cells (Aβ ELISA)
Description: (§5) We next tested all GSIs on cAPPC100sub and full‐length APP stably overexpressing cells. […] The low‐dose potentiation of γ‐secretase cleavage was further mechanistically probed using in vitro assays with recombinant substrates and IP‐MS.
as §2, §3, §4

[1] = tested on: cNOTCH1‐4sub and cAPPC100sub; assay: Substrate accumulation in H4 cells stably expressing cNOTCH1-4sub and cAPPC100sub (Western blot); format: cell-based, human; conditions: for substrate accumulation (Western blot), other GSIs tried beside DAPT: authors' response, concentration not given
Protocol: In order to enable us to more definitively characterize the effects of various GSIs on different substrates, we generated H4 cells stably expressing cNOTCH1‐4sub and cAPPC100sub (Fig 4A). Chimeric substrates were detected by WB using anti‐FLAG antibody (Fig 4B). Multiple CTFs are detectable as well as potential dimers for all substrates. Multiple NTF are also detectable using anti‐Aβ 6E10 antibody (Appendix Fig S2) for cNOTCH1, 3, and 4 substrates.
as §3
as §4, with “Pan‐NOTCH1 antibody (C‐20) (Santa Cruz Biotechnology) and cleaved NOTCH1 (Val1744) antibody (Developmental Studies Hybridoma Bank) were used at 1:500 and 1:100 dilution in the test of endogenous NOTCH1 inhibition with β‐actin expression used as loading control. β‐actin antibody was used at 1:1,000 dilution (Sigma). Band intensities normalized for actin using densitometry analysis with ImageJ Software (NIH, USA).” left out

Aβ40 = tested on: Aβ40; parameters: method as in ref Appendix Table S1 (Gavai et al, 2015; Dovey et al, 2001; Cook et al, 2010; Krop et al, 2012; Wei et al, 2010; Luistro et al, 2009; Mitani et al, 2012); conditions: ref Appendix Table S1 (Gavai et al, 2015; Dovey et al, 2001; Cook et al, 2010; Krop et al, 2012; Wei et al, 2010; Luistro et al, 2009; Mitani et al, 2012); read-out: Reported IC50s Aβ40; cited from earlier work
APP = assay: Endogenous APP-CTF accumulation in MDA-MB-231 cells (Western blot); format: cell-based
Protocol: (§6) To extend the study to a more physiological system, we assessed endogenous NOTCH1 cleavage inhibition using the triple‐negative breast cancer line MDA‐MB‐231 (Fig 6A). Full‐length blots are shown in source data for Fig 6. NOTCH1 cleavage was detected by Western blotting using the Cell Signaling neo‐epitope NICD antibody. […] The inhibition of endogenous APP in MDA‐MB‐231 cells was also tested by detecting accumulation of APP COOH‐terminal fragments (APP‐CTFs). […] Figure 6D summarized the APP‐CTF band intensities normalized for DMSO group. The original blots are available in source data for Fig 6.
Values are mean ± SD of three tests. • APP‐CTF Western blot of MDA‐MB‐231 cells treated with indicated concentration of GSIs for 16 h. • Band intensities of APP‐CTF with 0.1 μM GSIs were normalized for DMSO control group. Values are mean ± SD of three tests. Data information: Original blots are provided as source data. All band intensity data are derived from three independent experiments and are analyzed by one‐way ANOVA using GraphPad Prism6 software. All experiments were repeated three times.Source data are available online for this figure.

cNOTCH1sub = assay: Cell-based γ-secretase cleavage assay, cNOTCH1sub in H4 cells (Aβ-like peptide ELISA); parameters: species or system human; conditions: Aβ-like peptide in media, GSI overnight
Protocol: as §1, §2, §3, §4

NOTCH1 = assay: Endogenous NOTCH1 cleavage inhibition in MDA-MB-231 cells (NICD Western blot after EDTA activation); format: cell-based; conditions: MDA-MB-231, 100 nM to 12.5 μM, 1 h pretreatment then 5 mM EDTA 5 min
Protocol: as §6
Short‐term endogenous NOTCH1 cleavage inhibition was tested in the triple‐negative breast cancer cell lines MDA‐MB‐231 (ATCC, Manassas, VA). Cells were plated in 60 mm dishes and maintained as monolayer cultures in DMEM medium supplemented with 10% FBS, 1% penicillin/streptomycin, 1% L‐glutamine (Life Technologies), and incubated at 37°C in a humidified 5% CO2 incubator. After the cells reached ~75% confluency, cultures were pretreated with GSIs for 1 h in DMEM at 37°C in a 5% CO2 incubator. GSIs were tested at concentrations of 0, 0.1, 0.5, 2.5, and 12.5 μM. Then, EDTA (5 mM, Life Technologies) was added to the cell cultures to induce Notch activation for 5 min. Following incubation, cell extracts were prepared by lysing cells in RIPA buffer (Santa Cruz Biotechnology) containing protease and phosphatase inhibitors. Western blotting was performed using Cleaved NOTCH1 (Val1744) antibody (Cell Signaling) with β‐actin (Santa Cruz Biotechnology) as loading control. Band intensities were normalized for actin using ImageJ Software (NIH, USA).
as §4

cNOTCH3sub = assay: Cell-based γ-secretase cleavage assay, cNOTCH3sub in H4 cells (Aβ-like peptide ELISA); parameters: species or system human
Protocol: as §1, §2, §3, §4

SPP = tested on: SPP; parameters: method as in Weihofen et al, 2003; conditions: concentration up to 100 μM; ref Weihofen et al, 2003; cited from earlier work
cNOTCH2sub = cNOTCH2sub (Homo sapiens, UniProt P49768); assay: Cell-based γ-secretase cleavage assay, cNOTCH2sub in H4 cells (Aβ-like peptide ELISA); conditions: rank among the six GSIs, number in brackets
Protocol: as §1, §2, §3, §4

cNOTCH4sub = assay: Cell-based γ-secretase cleavage assay, cNOTCH4sub in H4 cells (Aβ-like peptide ELISA); parameters: species or system human; conditions: Aβ-like peptide in media, GSI overnight
Protocol: as §1, §2, §3, §4

full‐length APP = assay: Cell-based γ-secretase cleavage assay, full-length APP stably overexpressing cells (Aβ ELISA)
Protocol: as §5, §3, §4

γ‐secretase = γ‐secretase (Homo sapiens, UniProt P49768); conditions: quoted in parentheses in the authors' response, no assay and reference not given; cited from earlier work
rC100sub and rNOTCH1sub = assay: Cell-free γ-secretase assay, rC100sub and rNOTCH1sub (Appendix Fig S1); format: biochemical
Protocol: Although not suited for detailed dose–response studies due to challenges in precise quantification of the cleavage products, we nevertheless conducted several studies to examine how different GSIs affect cleavage in the cell‐free assay. […] We also evaluated a previously reported Notch‐sparing GSI, Avagacestat (BMS‐708163) (Gillman et al, 2010; Albright et al, 2013) using this assay (Appendix Fig S1).
CHAPSO‐solubilized CHO cell membrane was prepared as described in previous report. 25 μg/ml of each substrate was incubated with the membrane (100 μg/ml total protein) in sodium citrate buffer (150 mM, pH 6.5, Roche Complete protease inhibitor added) for 2 h at 37°C. […] The reaction was terminated by placing tubes on ice until immunoprecipitation.
Immunoprecipitation and mass spectrometry of Aβ and Aβ‐like peptides in cell‐free assay or conditioned media were performed as previously described (Ran et al, 2014). Briefly, the peptides were immunoprecipitated using anti‐Aβ Ab5 antibody bound to sheep anti‐mouse IgG magnetic Dynabeads (Life Technologies) and eluted with 0.1% trifluoroacetic acid (TFA) in water. COOH‐terminal fragments (CTFs) were immunoprecipitated with anti‐FLAG M2 magnetic beads (Sigma). […] Samples were analyzed using a Bruker Microflex LRF‐MALDI‐TOF mass spectrometer.

[2] = tested on: cNOTCH1‐4sub and cAPPC100sub; assay: Secretion of Aβ-like peptides from cNOTCH1-4sub and cAPPC100sub H4 cells (ELISA, IP-MS); format: cell-based, human
Protocol: The secreted Aβ‐like peptides can be detected using Aβ ELISA method.
as §3
Immunoprecipitation and mass spectrometry of Aβ and Aβ‐like peptides in cell‐free assay or conditioned media were performed as previously described (Ran et al, 2014). Briefly, the peptides were immunoprecipitated using anti‐Aβ Ab5 antibody bound to sheep anti‐mouse IgG magnetic Dynabeads (Life Technologies) and eluted with 0.1% trifluoroacetic acid (TFA) in water. […] Samples were analyzed using a Bruker Microflex LRF‐MALDI‐TOF mass spectrometer.
Sandwich ELISAs used for Aβ detection were performed as previously described (Murphy et al, 1999; Ran et al, 2014). Briefly, Aβ and Aβ‐like peptides in conditioned media were captured with Ab5 antibody and detected with horseradish peroxidase labeled mAb 4G8 (Biolegend). […] The supernatants were collected, and protein concentrations were determined by Bradford Assay. […]

SMILES: C[C@H](NC(=O)Cc1cc(F)cc(F)c1)C(=O)N[C@H](C(=O)OC(C)(C)C)c1ccccc1 [DAPT]
- IC50 (cNOTCH1‐4sub): 191 nM
- IC50 (cAPPC100sub; stably overexpressing cells, Aβ ELISA, read-out: IC50 cC100sub): 360 nM
- IC50 (cAPPC100sub; value in parentheses, read-out: IC50 cC100sub, from curves excluding the Aβ level > 120%): 212 nM
- substrate accumulation (Western blot) ([1]; 1 μM treatment, H4 cells): did not result in significant substrate accumulation except for cAPPC100sub
- IC50 (Aβ40): 20 nM
- APP CTF level / accumulation at 100 nM (APP; MDA-MB-231 (231 cells), 100 nM, triplicate): hard to see; also recorded: did not significantly increase CTF level
- concentration from which APP‐CTF process is inhibited (APP; MDA-MB-231, 16 h): ≥ 500 nM
- IC50 (cNOTCH1sub): 4.9 nM
- NICD levels (NOTCH1): did not suppress NICD levels to baseline levels at any concentrations
- effect on cNOTCH3sub cleavage at low concentrations (cNOTCH3sub): potentiate
- IC50 (cNOTCH3sub; Aβ-like peptide in media, GSI overnight, read-out: IC50 cNOTCH3sub): 624 nM
- IC50 (cNOTCH3sub; value in parentheses, read-out: IC50 cNOTCH3sub, from curves excluding the Aβ level > 120%): 265 nM
- effect on SPP activity (SPP): no effect
- rank order of inhibition of cNOTCH2sub (cNOTCH2sub): [6]
- IC50 (cNOTCH4sub): 51.5 nM
- low-dose potentiation of cleavage, APP (full‐length APP; full-length APP overexpressing cells): low‐dose potentiation of cleavage was observed
- IC50 (full‐length APP; full-length APP stably overexpressing cells, Aβ ELISA): 32.7 nM

SMILES: CC(C)C[C@H](NC(=O)[C@H](Cc1ccccc1)C[C@@H](O)[C@H](Cc1ccccc1)NC(=O)OC(C)(C)C)C(=O)N[C@@H](Cc1ccccc1)C(N)=O [L685458]
- substrate accumulation (Western blot), other GSIs tried beside DAPT [1]: only cAPPC100 show some accumulation
- IC50 (γ‐secretase): 17 nM

SMILES: NC(=O)[C@@H](CCC(F)(F)F)N(Cc1ccc(-c2ncon2)cc1F)S(=O)(=O)c1ccc(Cl)cc1 [Avagacestat]
- inhibition of APP versus Notch cleavage (rC100sub and rNOTCH1sub): inhibit APP and Notch cleavage equivalently

SMILES: C[C@H](NC(=O)[C@@H](O)c1cc(F)cc(F)c1)C(=O)N[C@@H]1C(=O)N(C)c2ccccc2-c2ccccc21 [LY411575, N2‐[(2S)‐2‐(3,5‐difluorophenyl)‐2‐hydroxyethanoyl]‐N1‐[(7S)‐5‐methyl‐6‐oxo ‐6,7‐dihydro‐5H‐dibenzo[b,d]azepin‐7‐yl]‐L‐alaninamide]
- Aβ-like peptides in culture media (IP-MS) ([2]; 1 μM): abolished all production
- secretion of Aβ-like peptides (ELISA) ([2]; 1 μM applied to cell cultures): almost completely inhibited
- substrate accumulation (Western blot), other GSIs tried beside DAPT [1]: only cAPPC100 show some accumulation
